The numbers were not newly measured in US20230304031A1, “VECTORS AND METHODS FOR IN VIVO TRANSDUCTION” (Abintus Bio, Inc., priority 2020, published 2023), which cites them from elsewhere.

Data set [1] concerns HSPC. As to conditions: cited from earlier work; for HSPC mobilization (in words): as reported in the cited literature; for G-CSF-induced HSPC mobilization with NSAID: blocking of PGE2 production.
A further data set concerns CD34+ cells / HSPC. As to conditions: cited from earlier work; for CD34+ HSPC counts in the blood: 24 hours post-injection; for median yield of CD34+ cells: 5 µg/kg/day after chemotherapy, relapsed Hodgkin's disease; for increase in the harvest of CFU-GM over baseline: 5 µg/kg/day alone for 4 days.
In data set [2] the target is phosphodiesterase type 5 (PDE5) (Homo sapiens, UniProt O76074). As to conditions: after oral administration; cited from earlier work.
In the next data set the test system is VLA-5. As to conditions: after SCF stimulation; cited from earlier work.
In another data set the test system is VLA-4. The following applies: after SCF stimulation; cited from earlier work.
In data set [3] the test system is HSPC. As to conditions: mice / murine models; cited from earlier work.
A further data set has as its system HSCs. As to conditions: cited from earlier work.
Setting [4] is: 10 breast cancer patients, 0.84 ± 0.1 µg/kg/day.

Counter-ions that a name gives are not always drawn. Like-named read-outs stand apart in the source and are kept apart here.

Turning to `c1cc(CN2CCCNCCNCCCNCC2)ccc1CN1CCCNCCNCCCNCC1` [AMD3100, reference compound], in the data set on HSPC [1], the “HSPC mobilization (in words)” value is “rapidly mobilize HSPCs in various animal models”. In addition, in the data set on CD34+ cells / HSPC (subcutaneous 240 µg/kg), the “CD34+ HSPC counts in the blood” value is recorded as “approximately 10 cells/µL”, the “peak CD34+ HSPC counts in the blood” value is “approximately 25 cells/µL” and the “time to peak CD34+ HSPC counts” value was 8 to 10 h. For the same molecule, in the data set with CD34+ cells / HSPC (subcutaneous 480 µg/kg), the “CD34+ HSPC counts in the blood” value is reported as “approximately 20 cells/µL”, the “peak CD34+ HSPC counts in the blood” value was “approximately 30 cells/µL” and the “time to peak CD34+ HSPC counts” value is 8 to 10 h.
In the case of `O=C(O)[C@H](Cc1ccc(OC(=O)N2CCCC2)cc1)NC(=O)[C@@H]1CCCN1S(=O)(=O)c1ccccc1` [BOP, N-(benzenesulfonyl)-L-prolyl-L-O-(1-pyrrolidinylcarbonyl)tyrosine], in the data set on HSPC [1], the “HSPC mobilization (in words)” value is reported as “rapidly mobilizes long-term multi-lineage reconstituting HSPC”.
As to `C[C@@H](NCCCc1cccc(C(F)(F)F)c1)c1cccc2ccccc12` [Cinacalcet], in the data set with HSPC [1] (pharmacological activation of CaR), the “HSPC adhesion, migration and homing” value is “increased adhesion of HSPCs to collagen I and fibronectin”.
Take `CCCCCCCCc1ccc(CCC(N)(CO)CO)cc1` [FTY720]: in the data set on HSPC [1], the “HSPC mobilization (in words)” value was “decreases steady-state mobilization of HSPCs”.
With `CCOCc1cc(OC)c(-c2ccc(C[C@H](NC(=O)c3c(F)cccc3F)C(=O)O)cc2)c(OC)c1` [Firategrast], the “HSPC mobilization (in words)” value in the data set with HSPC [1] is “disrupt HSPC retention in the postnatal hematopoietic niche”.
Turning to `CC(=O)N[C@@H](CS)C(=O)O` [NAC, N-acetyl-L-cysteine], the “HSPC mobilization (in words)” value with HSPC [1] is given as “significantly abrogate UDP-glc-induced HSPC mobilization”.
`CCCc1nn(C)c2c(=O)[nH]c(-c3cc(S(=O)(=O)N4CCN(C)CC4)ccc3OCC)nc12` [Sildenafil citrate]: the “time of peak activity” value in data set [2] was 2 h.
With `CC(=O)Oc1ccccc1C(=O)O` [aspirin], the “G-CSF-induced HSPC mobilization with NSAID” value in the data set with HSPC [1] is given as “doubled”.
As to `O=P1(N(CCCl)CCCl)NCCCO1` (centres unmarked) [cyclophosphamide, reference compound], in the data set with CD34+ cells / HSPC (doses of 4-7 g/m2), the “CD34+ cell yields” value is recorded as ~3.62 × 10^6 cells/kg. Besides, in the data set with CD34+ cells / HSPC (single dose of 4 g/m^2), the “increase in the number of CFU-GM” value was “up to 25 fold”.
On to `CC(C)Cc1ccc(C(C)C(=O)O)cc1` (centres unmarked) [ibuprofen], for which the “G-CSF-induced HSPC mobilization with NSAID” value in the data set on HSPC [1] is given as “doubled”.
With `COc1ccc2c(c1)c(CC(=O)O)c(C)n2C(=O)c1ccc(Cl)cc1` [indomethacin], in the data set with HSPC [1], the “G-CSF-induced HSPC mobilization with NSAID” value is “doubled”.
On to “GM-CSF: granulocyte-macrophage colony stimulating factor [reference compound]”, for which, in the data set on CD34+ cells / HSPC, the “median yield of CD34+ cells” value is reported as 5.6 × 10^6 CD34+ cells/kg and the “increase in the harvest of CFU-GM over baseline” value is reported as 33.7 fold. Further, the “CFU-GM content of mobilized HSPC populations” value in the data set with CD34+ cells / HSPC (250 µg/m2 versus 125 µg/m2) is “superior yield”. Moreover, the “increased HSPC in the peripheral blood” value in the data set with CD34+ cells / HSPC (4-64 µg/kg/day continuous intravenous infusion up to 7 days, cancer patients) is listed as 4- to 18 fold.
For “Natalizumab: humanized monoclonal anti-VLA-4 antibody [reference compound]”, the “increase in circulating CD34+ cells” value in the data set on CD34+ cells / HSPC (patients receiving infusion therapy for multiple sclerosis) was “approximately 3 fold”.
In the case of SCF: Stem Cell Factor, in the data set on VLA-5, the “increase of VLA-5 expression on CD34+ HSPC” value is given as 4- to 10 fold. Moreover, in the data set with VLA-4, the “increase of VLA-4 expression on CD34+ HSPC” value was “approximately 2 fold”.
Regarding “vedolizumab: humanized monoclonal antibody against the α4β7 integrin”, the “HSPC mobilization (in words)” value with HSPC [3] is recorded as “Reduction in plasma CXCL12 levels, accompanied by reduced HSPC egress”.

B1: G-CSF: hematopoietic growth factor (protein, UniProt P09919 31-207, looked up)
Granulocyte …: TPLGPASSLPQSFLLKCLEQVRKIQGDGAALQEKLVSECATYKLCHPEELVLLGHSLGIPWAPLSSCPSQALQLAGCLSQLHSGLFLYQGLLQALEGISPELGPTLDTLQLDVADFATTIWQQMEELGMAPALQPTQGAMPAFASAFQRRAGGVLVASHLQSFLEVSYRVLRHLAQP
In the case of B1, in the data set with CD34+ cells / HSPC, the “median yield of CD34+ cells” value was 7.6 × 10^6 CD34+ cells/kg and the “increase in the harvest of CFU-GM over baseline” value is recorded as 35.6 fold. Moreover, the “increase in CD34+ content of peripheral blood over baseline” value in the data set with CD34+ cells / HSPC (5 µg/kg/day) is given as “sevenfold”. Also, in the data set on CD34+ cells / HSPC (10 µg/kg/day, 34 patients with Hodgkin's disease or NHL), the median harvest is 2.8 × 10^6 CD34+ cells/kg. In the data set with CD34+ cells / HSPC (10 µg/kg/day), the “CD34+ HSPC yield” value is listed as 11.32 × 10^7 /kg cells and the “increase in CD34+ content of peripheral blood over baseline” value is on record as 28 fold. Besides, the mean total harvested with CD34+ cells / HSPC (12 µg/kg/day for 6 days, 17 patients with non-myeloid malignant disorders) is 33 × 10^4 CFU-GM/kg. In addition, the “CD34+ HSPC yield” value with CD34+ cells / HSPC (24 µg/kg/day) is given as 48.25 × 10^7 /kg cells. Besides, in the data set with CD34+ cells / HSPC (setting [4]), the “mean yield after the first leukapheresis” value is on record as 0.77 × 10^6 CD34+ cells/kg and the “mean yield after the second leukapheresis” value is 1.42 × 10^6 CD34+ cells/kg. For the same molecule, the “increase in HSPC over baseline” value with CD34+ cells / HSPC (G-CSF 5 µg/kg/day for a further 5 days after 7 days of GM-CSF 5 µg/kg/day) is 80 fold. Also, the “mobilized PBPC cells expressing CD38” value with CD34+ cells / HSPC (by mobilization regimen) is on record as 88%. The mean harvest yield with CD34+ cells / HSPC (healthy subjects, G-CSF 5 plus GM-CSF 5 µg/kg/day versus G-CSF 10 µg/kg/day alone) is 119 × 10^6 CD34+ cells/kg. Also, in the data set on HSCs (1 day after 4 consecutive days of injections), the “numbers of HSCs in the bloodstream” value is 3,400 HSCs/mouse. Further, the “HSC mobilization (comparison in words)” value in the data set with HSCs (regimens as worded) was “not significantly better than the 2-h Viagra + AMD3100 mobilization protocol”.
